Assay: recombinant UMI read abundance after kanamycin selection (control-corrected) (log10(CPM+1)); higher = more efficient recombination; extreme values may be limits of the assay; sequences stand for … in AGTGCAGAGAAAATCGGCCAGTTTTCTCTGCCTGCAGTCCGCATGCCGTGGGACCCCTTGGGTTCTAACCTGTTGCCTAGATTTATGCAGCGGACTGCCTTTCTCCCAAAGTGATAAACCGG…AGGTTGGTTTCACT; site = the 11-nt donor
Procedure, shortened: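 In a pooled Escherichia coli screen for the IS621 bridge recombinase, donor and donor-binding-loop pairs were each placed with a 12-nt UMI on a plasmid bearing a promoterless kanamycin gene. This library was co-electroporated with a target plasmid encoding a fixed target and T7-inducible recombinase, and cells were plated either on IPTG (0.07 mM) plus kanamycin or without selection, in two replicates each. Recombinant UMIs were PCR-amplified across the donor–target junction and sequenced, and counts were converted to CPM, averaged over replicates, scaled by control-derived factors and reported as log10(CPM+1).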
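Also: IS621 bridge recombinase in Escherichia coli cells against a fixed T5 target plasmid.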

| Sequence | recombinant UMI read abundance (log10) |
| --- | --- |
| TAATGGGCATGGACCGGTTTTCCCGGTAATCCGTATTTGGG (site TAATGGGCTCC) | 0.0225 |
| TAATGGGCATGGACCGGTTTTCCCGGTAATCCGTATTTGGG (site TAATGTGCTCC) | 0.0203 |
| TAATTAACATGGACCGGTTTTCCCGGTAATCCGTATTTGGT (site TAATTAACTAC) | 0.813 |
| TAATTCCCATGGACCGGTTTTCCCGGTAATCCGTATTTGCT (site AAATTCCCTAG) | 0.531 |
| TAATTCCCATGGACCGGTTTTCCCGGTAATCCGTATTTGCT (site CAATTCCCTAG) | 0.55 |
| TAATTCCCATGGACCGGTTTTCCCGGTAATCCGTATTTGCT (site GAATTCCCTAG) | 1.7 |
| TAATTCCCATGGACCGGTTTTCCCGGTAATCCGTATTTGCT (site TAATTCCCTAG) | 1.65 |
| TACACCGCATGGACCGGTTTTCCCGGTAATCCGTATTTGAG (site TACACCGCTCT) | 0.702 |
| TACACCGCATGGACCGGTTTTCCCGGTAATCCGTATTTGCG (site TACACCGCTCG) | 0.0108 |
| TACACCGCATGGACCGGTTTTCCCGGTAATCCGTATTTGCG (site TCCACCGCTCG) | 0 |
| TACACCGCATGGACCGGTTTTCCCGGTAATCCGTATTTGCG (site TGCACCGCTCG) | 0.0236 |
| TACACCGCATGGACCGGTTTTCCCGGTAATCCGTATTTGCG (site TTCACCGCTCG) | 0.00838 |
| TACAGCTCATGGACCGGTTTTCCCGGTAATCCGTATTTGGA (site TACAGCTCTTC) | 0.841 |
| TACAGTCCATGGACCGGTTTTCCCGGTAATCCGTATTTGTA (site TAAAGTCCTTA) | 0 |
| TACAGTCCATGGACCGGTTTTCCCGGTAATCCGTATTTGTA (site TACAGTCCTTA) | 0.128 |
| TACAGTCCATGGACCGGTTTTCCCGGTAATCCGTATTTGTA (site TAGAGTCCTTA) | 0.198 |
| TACAGTCCATGGACCGGTTTTCCCGGTAATCCGTATTTGTA (site TATAGTCCTTA) | 0.00977 |
| TACAGTTCATGGACCGGTTTTCCCGGTAATCCGTATTTGAG (site TACAGTTCTCT) | 1.31 |
| TACATAACATGGACCGGTTTTCCCGGTAATCCGTATTTGCA (site TACATAACTTG) | 0.258 |

| Sequence | recombinant UMI read abundance (log10) |
| --- | --- |
| TACATATCATGGACCGGTTTTCCCGGTAATCCGTATTTGGG (site TACATATCTCC) | 0 |
| TACATGACATGGACCGGTTTTCCCGGTAATCCGTATTTGGT (site TACATGACTAC) | 0.581 |
| TACCACCCATGGACCGGTTTTCCCGGTAATCCGTATTTGAC (site TACCACCCTGT) | 0 |
| TACCCAGCATGGACCGGTTTTCCCGGTAATCCGTATTTGCT (site TACCCAGCTAG) | 0.0305 |
| TACCCATCATGGACCGGTTTTCCCGGTAATCCGTATTTGAG (site TACCCATCTCT) | 0.374 |
| TACCCCTCATGGACCGGTTTTCCCGGTAATCCGTATTTGGC (site TACCCCTCTGC) | 3.09 |
| TACCCGTCATGGACCGGTTTTCCCGGTAATCCGTATTTGCT (site TACCCGTCTAG) | 2.07 |
| TACCGTCCATGGACCGGTTTTCCCGGTAATCCGTATTTGAT (site AACCGTCCTAT) | 0.0188 |
| TACCGTCCATGGACCGGTTTTCCCGGTAATCCGTATTTGAT (site CACCGTCCTAT) | 0.00852 |
| TACCGTCCATGGACCGGTTTTCCCGGTAATCCGTATTTGAT (site GACCGTCCTAT) | 0.00523 |
| TACCGTCCATGGACCGGTTTTCCCGGTAATCCGTATTTGAT (site TACCGTCCTAT) | 0.00444 |
| TACCTACCATGGACCGGTTTTCCCGGTAATCCGTATTTGAG (site TACCTACCTCT) | 0.0115 |
| TACCTGACATGGACCGGTTTTCCCGGTAATCCGTATTTGGC (site TACCTGACTGC) | 0 |
| TACGAATCATGGACCGGTTTTCCCGGTAATCCGTATTTGCG (site TAAGAATCTCG) | 0 |
| TACGAATCATGGACCGGTTTTCCCGGTAATCCGTATTTGCG (site TACGAATCTCG) | 2.16 |
| TACGAATCATGGACCGGTTTTCCCGGTAATCCGTATTTGCG (site TAGGAATCTCG) | 0.321 |
| TACGAATCATGGACCGGTTTTCCCGGTAATCCGTATTTGCG (site TATGAATCTCG) | 2.1 |
| TACGATACATGGACCGGTTTTCCCGGTAATCCGTATTTGGA (site TACGATACTTC) | 0.806 |
